Experiments:
[1] = system: CD36 scavenger receptor; test: Flow cytometry of cell surface CD36 in macrophages; format: cell-based, murine; settings: 1 hour exposure, FACS
Description: (§1) To determine the immunomodulatory effect of A-O complex, serum starved macrophages were exposed to the complex. Macrophages (1×10^6 cells) were serum starved for 30 min after which cells were exposed to A-O complex. After 1 hour, cells were washed with 1×PBS (pH 7.4) and harvested using cell dissociation solution. Then the cells were suspended in ice cold staining buffer (100 μl) and centrifuged at 1000 rpm for 5 min at 4° C. The cells were resuspended in 100 μl ice cold staining buffer for 10 min at 2-8° C. and pellet resuspended in 50 μl staining media. To this 2 μl of Fc block or anti-mouse CD16/CD32 was added for 10 mins and washed with staining buffer. The cells were resuspended in 50 μl of staining buffer and incubated with fluorescent-tagged CD36 antibody (e-biosciences) for 25-30 min on ice. The excess stain was removed by washing and pelleting down using staining buffer thrice by spinning and removal of staining buffer. The cell suspension was fixed 1:1 ratio (staining buffer:fixative) and analysed within 48 h in ARIA3 DIVA software version 6.1. Further, expression of MHC-II, and CD-36, was also determined in the microglial cells via qPCR. […] Following amplification, fold changes in gene expression versus β-actin (reference) analysis was determined using the 2^ΔΔCT(Livak) method.

[2] = system: ConA activated macrophages; test: qPCR in ConA activated macrophages; format: cell-based, murine
Description: as §1, with “qPCR. For this RNA extraction was performed using RNA extraction kit from Qiagen according to the manufacturer's instruction. cDNA synthesis was performed using cDNA synthesis kit from Qiagen.” for “qPCR.”, “method. To determine the immunomodulatory effect of A-O complex on activated macrophages, macrophages were activated with Concanavalin-A (Con-A), for 30 minutes and the changes in mRNA levels of Cd36, Lrp1, Cd11b, Cd74 and Apoe were analyzed by qPCR.” for “method.”

[3] = system: carrageenan induced paw edema; test: Carrageenan induced paw inflammation in mice; format: in vivo, mouse
Description: The effect of A-O complex was tested under in vivo conditions. Carrageenan, an inflammation inducing agent was injected into the hind foot pad of mouse to induce acute inflammation. The edema attains peak at around 3 hours post carrageenan challenge. This is a convenient model to assess the anti-inflammatory potency of test drugs to reduce or prevent the development of swelling. The protocol followed herein is as per Morris (2003) [Morris C J, 2003, Carrageenan induced paw edema in rat and mouse. In: Winyard P. G., Willoughby D. A. (eds) Inflammation Protocols. Methods in Molecular Biology, Vol 225. Humana Press. Pp 115-121].
Preparation of carrageenan: To prepare 0.5% of carrageenan solution, 50 mg of lamda-carrageenan ([…], Sigma Chemical Co., St. Louis, Mo., USA) was slowly added onto a small beaker containing 10 ml of normal saline. The powder was allowed to swell for some time and then slightly heated (not boiled) to dissolve the carrageenan. The solution was stirred during the heating. Once dissolved, the solution was cooled and aliquoted and stored at 4 degree Celsius.
Method: For experiment, the mice were acclimatized in cages under standard light and temperature settings with access to food and water ad libitum. Mice were acclimatized for 1 week in respective cages to minimize stress. At the day of experiment, mice were placed in a temporary animal restraint and 50 microlitre of carrageenan solution was administered by intraplantar injection to the right hind paw of each mouse. The left paw served as control and was administered 50 microlitre of normal saline.
To determine the efficacy of A-O complex different concentrations of complex viz. 5, 20 and 50 microgram per 100 g body weight of mice were administered intraperitoneally 1 hour before carrageenan challenge. Ibuprofen (100 mg/kg, Sigma Chemical Co., St. Louis, Mo., USA) served as positive control for the experiment. Paw size was measured by wrapping a piece of cotton thread round the paw of each […] and recording the length of the thread, the paw circumference, by use of a metric ruler. Paws were measured immediately before and at specified time points after carrageenan injection. Inhibitory activity was calculated at 1-5 h after carrageenan injection with the following formula: % Inhibition=[(Ct−C0)control−(Ct−C0)treated]/(Ct−C0)control×100, where Ct is paw size after carrageenan injection and C0 is paw size before carrageenan injection.

## A-O complex: peptide complex of 100 μM Abeta1-42 (SEQ ID NO: 1) and 3 ng Glu-OC (SEQ ID NO: 2), incubated at 37° C. for 4 hours
[1]
  cell surface protein expression of CD36 receptor: increased cell surface protein expression
[2]
  mRNA level of Cd11b: significantly reversed
  mRNA level of Cd36: significantly induced
  mRNA level of Cd74: significantly reversed
[3]; 5 microgram per 100 g body weight i.p. 1 hour before carrageenan, first value (1 hour)
  reduction in paw edema: 25%
[3]; 5 microgram per 100 g body weight i.p., second value (3rd hour)
  reduction in paw edema: 48%
[3]; 5 microgram per 100 g body weight i.p., third value (5th hour)
  reduction in paw edema: 58%
[3]; 20 microgram per 100 g body weight i.p., first value (1 hour)
  reduction in paw edema: 30%
[3]; 20 microgram per 100 g body weight i.p., second value (3rd hour)
  reduction in paw edema: 60%
[3]; 20 microgram per 100 g body weight i.p., third value (5th hour)
  reduction in paw edema: 65%
[3]; 50 microgram per 100 g body weight i.p., first value (1 hour)
  reduction in paw edema: 30%
[3]; 50 microgram per 100 g body weight i.p., second value (3rd hour)
  reduction in paw edema: 57%
[3]; 50 microgram per 100 g body weight i.p., third value (5th hour)
  reduction in paw edema: 65%

Reference: patent US11447534B2, “Peptide complex with immunodulatory and anti-inflammatory function” (NATIONAL INSTITUTE OF IMMUNOLOGY, priority 2018, dated 2022)
